Experimental data from patent publication US11834566B2, “High-carbon recovered paper and plastic materials with reduced endotoxin levels” (Continuus Materials Intellectual Property, LLC, priority 2020, dated 2023).

Assay: Water-soluble endotoxin in aqueous extract of recovered paper/plastic fragments, L.A.L. kinetic chromogenic method
Settings: Example 13, about 2,000 ppm glutaraldehyde on fragments
Description: Sample #7 from Example 1 was assayed for water-soluble endotoxins. Specifically, a clean, new 500 mL plastic bottle (500 mL capacity) was charged with recovered paper/plastic fragments (20 g, from sample #7 in Example 1) and sterile, cell-culture grade water (200 g). The bottle was immediately capped tightly and agitated in a Gilson shaker for a period of 60 s. The loaded bottle was then conditioned for 1 h at a temperature of 65-70° F. and was then subjected to agitation in the Gilson shaker for a second period of 60 s. The bottle was then opened and a sample of liquor extract (15 mL) was decanted into a sterile sample vial, which was immediately capped and labeled. Collected extract underwent endotoxin analysis using the L.A.L. kinetic chromogenic method.
Recovered paper/plastic sample batches (500 g, as-is basis, #7 sample from Example 1) were loaded into a plastic bin (16.125″×11.25″×6.75″) and were then sprayed with aqueous glutaraldehyde solutions at various target levels. In this process, the loaded bin was weighed initially and was then re-weighed repeatedly during the application of the glutaraldehyde solution until the target application level was achieved. The bin was repeatedly closed and shaken during this process in order to obtain a uniform distribution of the glutaraldehyde on the fragments. […]

O=CCCCC=O [glutaraldehyde]
water-soluble endotoxin crosslinked and converted to water-insoluble material: about 99.9%
